One assay relates to β2AR. Put plainly: β2AR sequestration in HEK-293 cells by 125I-Cyanopindolol binding. Format: cell-based. The following applies: 1 μM isoproterenol; LY294002 100 μM 15 min before. Here is the method:
Determination of β2AR Sequestration in HEK-293 Cells by ^125I-Cyanopindolol (CYP) Binding—β2AR sequestration was performed as previously described. Briefly, HEK-293 cells were plated at a density of 2.5×10^6 cells/dish and transfected the following day with plasmids containing either the β2AR (150-250 ng), β2AR (250 ng) and HEAT domain (4 μg), PI3Kγ (4.0 μg) or ΔPI3Kγ (4.0 μg) cDNAs. Twelve hours after transfection cells were split into six well Falcon plates at a density of 750,000 cells/well. […] To determine the amount of internalized receptor, 100 μl aliquots of whole cells were added to 150 μl of binding buffer (75 mM Tris-HCl, 10 mM MgCl2, 5 mM EDTA (pH 7.5)). Total binding was determined in the presence of 175 pM ^125I-CYP alone, the number of internalized receptors were determined by using 175 pM ^125I-CYP plus 100 nM CGP12177, and non-specific binding was determined using 175 pM ^125I-CYP plus 1 μM propranolol. Sequestration was calculated as the ratio of (specific receptor binding of ^125I-CYP in the presence of CGP12177)/(specific receptor binding of ^125I-CYP in the absence of CGP12177).

In the next assay the target is T1, PI3K (Homo sapiens, UniProt P48736, DEL30-30/Q459R).
T1 construct: expressed in transfected cells; host or cells: NIH-3T3
Briefly: βARK1 associated PI3K activity (lipid kinase assay) in transfected NIH-3T3 cells. Format: cell-based, Mouse. The following applies: 10 μM isoproterenol, 2 min; cells co-transfected with βARK1 and HA-PI3Kγ.

The next assay concerns β2AR complex. Put plainly: Recruitment of AP-2 adaptin and clathrin to the agonist-stimulated β2AR complex (immunoprecipitation, immunoblot). Format: cell-based. The following applies: saponin-permeabilized cells, isoproterenol 5 min; compared to similar concentration of Ptdlns (4,5) P2. On the procedure:
Immunoblotting and Detection—Immunoblotting and detection of PI3K, βARK1, HA-PI3Kγ, HA-ΔPI3Kγ, Myc-PI3Kα, FLAG-HEAT, PI3KΔHEAT-HA, FLAG-β2AR, HA-β2AR, β-adaptin and clathrin was carried out as previously described. Immunoprecipitating antibodies were added to 500 μg of cell lysate in lysis buffer followed by the addition of 35 μl of 1:1 Protein A- or G-agarose. Samples were rocked overnight at 4° C. then centrifuged at 12,000×g for 5 min. Immunoprecipitates were washed twice with lysis buffer, twice with 1×PBS and resuspended in 1×SDS-gel loading buffer. Proteins were resolved by SDS-polyacrylamide gel electrophoresis and blotted on to PVDF membrane (Bio-Rad). Blots were incubated with antibodies recognizing PI3K, Myc (Santa-Cruz), β-adaptin, clathrin heavy chain (BD Transduction Laboratories), HA (Roche Molecular Biochemicals) and FLAG (Sigma) at 1:2000 dilution and the βARK1 monoclonal antibody at 1:10,000 dilution. Blots were subsequently incubated with appropriate secondary antibody (1:2000 dilution) conjugated to horseradish peroxidase (Amersham Pharmacia Biotech) and detection was carried out using enhanced chemiluminescence. […]
The present inventors determined that βARK1-mediated localization of PI3K within the activated receptor complex is responsible for the generation of D-3 phosphatidylinositols necessary for the efficient recruitment of adaptin to the P2AR complex. […]

T1 sequence (P48736 with tags, fused parts or gaps DEL30-30/Q459R): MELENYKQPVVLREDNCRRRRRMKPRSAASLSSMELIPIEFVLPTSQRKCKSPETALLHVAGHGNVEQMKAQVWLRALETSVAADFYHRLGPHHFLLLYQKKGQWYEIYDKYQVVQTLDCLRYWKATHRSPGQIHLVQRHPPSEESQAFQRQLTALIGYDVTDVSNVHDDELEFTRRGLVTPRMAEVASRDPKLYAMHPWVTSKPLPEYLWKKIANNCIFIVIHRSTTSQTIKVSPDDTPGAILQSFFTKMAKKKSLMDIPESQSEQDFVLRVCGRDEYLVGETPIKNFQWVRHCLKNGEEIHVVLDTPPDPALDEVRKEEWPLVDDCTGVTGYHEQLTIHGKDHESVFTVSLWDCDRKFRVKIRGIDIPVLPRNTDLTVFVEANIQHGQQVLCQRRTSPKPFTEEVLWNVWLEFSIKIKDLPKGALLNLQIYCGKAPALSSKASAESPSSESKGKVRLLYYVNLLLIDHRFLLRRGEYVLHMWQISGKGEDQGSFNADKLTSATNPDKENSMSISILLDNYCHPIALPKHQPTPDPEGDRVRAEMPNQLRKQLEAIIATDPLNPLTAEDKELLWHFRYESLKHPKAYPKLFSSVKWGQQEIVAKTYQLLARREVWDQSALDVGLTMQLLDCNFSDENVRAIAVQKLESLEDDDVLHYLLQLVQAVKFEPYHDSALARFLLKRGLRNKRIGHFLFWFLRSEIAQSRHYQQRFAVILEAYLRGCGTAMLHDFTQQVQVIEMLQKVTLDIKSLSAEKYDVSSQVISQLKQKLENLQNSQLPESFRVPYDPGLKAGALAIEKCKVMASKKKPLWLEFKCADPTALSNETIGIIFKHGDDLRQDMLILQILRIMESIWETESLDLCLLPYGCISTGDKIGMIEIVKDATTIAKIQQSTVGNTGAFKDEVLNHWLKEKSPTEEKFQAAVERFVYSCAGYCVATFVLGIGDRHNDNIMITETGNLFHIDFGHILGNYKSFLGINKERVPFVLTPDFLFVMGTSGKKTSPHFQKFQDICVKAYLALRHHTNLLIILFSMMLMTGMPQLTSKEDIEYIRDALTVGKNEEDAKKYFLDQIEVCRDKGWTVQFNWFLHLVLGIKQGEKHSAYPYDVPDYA
Description for PI3K: Cell Culture—Mouse NIH-3T3 and HEK293 cells were maintained in either Iscoves modified Dulbecco's medium or minimal essential medium (MEM) supplemented with 10% fetal bovine serum and 1:100 penicillin-streptomycin (10,000 U/ml) at 37° C. Cells were seeded at a density of ˜1-3×10^5 cells/35 mm^2 dish and at 70-80% confluence were transiently transfected using the transfection reagent FUGENE6 (ROCHE) or calcium phosphate precipitation. Cells were harvested 24 hours after transfection, re-plated in triplicate, allowed to grow overnight and serum starved for 2-4 hours before agonist stimulation.
Cytosolic and Membrane Fractionation—Cell monolayers were scraped in 1 ml of buffer containing 25 mM Tris-HCl (pH 7.5), 5 mM EDTA, 5 mM EGTA, 1 mM phenylmethylsulfonyl fluoride, 2 μg/ml each of leupeptin and aprotinin and disrupted further by using Dounce homogenizer. Intact cells and nuclei were removed by-centrifugation at 1,000×g for 5 min. The collected supernatant was further subject to a centrifugation at 38,000×g for 25 min. The pellet was resuspended in lysis buffer (1% Nonidet P-40, 10% glycerol, 137 mM NaCl, 20 mM Tris-Cl (ph 7.4), 1 mM phenylmethylsulfonyl fluoride, 20 mM NaF, 1 mM sodium pyrophosphate, 1 mM sodium orthovanadate and 2 μg/ml each of aprotinin and leupeptin) and used as membrane fraction and the supernatant was diluted in lysis buffer and used as the cytosolic fraction.
Lipid Kinase Assays—Cells were lysed in lysis buffer and 2 mg cytosolic extract was used for immunoprecipitation with either the C5/1 monoclonal antibody directed against βARK1, the anti-FLAG M2 monoclonal antibody (Sigma) or antibodies to p110γ, or p110β (Santa Cruz Biotechnology) and protein G-agarose. Sedimented beads were then washed once with 1 ml of lysis buffer, thrice with 1 ml of phosphate-buffered saline (1× phosphate-buffered saline, 1% NP-40 and 100 μM sodium orthovanadate), thrice with 1 ml of Tris/LiCl (100 mM Tris-HCl (pH 7.4), 5 mM LiCl and 100 μM sodium orthovanadate) and twice with TNE (10 mM Tris Cl (pH 7.4), 150 mM NaCl, 5 mM EDTA and 100 μM sodium orthovanadate). Samples were then resuspended in 50 ml of TNE and 10 μl of 100 mM MgCl2 was added to each sample. The substrate, phosphatidylinositol (PI, Avanti), was prepared by drying 50 μl of the 10 mg/ml stock (PI in chloroform) in an eppendorf tube with a stream of air and adding 250 μl of TE (10 mM Tris Cl (pH 7.4) and 1 mM EDTA). The PI was then suspended by sonication in an ice bath for 3 minutes. 10 p, of the PI solution and 11 μl of ATP solution (440 μM cold ATP and 1 μCi/μl of [γ-32P]ATP) were added to each sample. […] Autoradiography of dried plates was used to detect signals, and PIP was quantified by phosphorimaging. […] Values are expressed as fold increase/decrease relative to wild-type/control.

In the assay on β2AR, `O=c1cc(N2CCOCC2)oc2c(-c3ccccc3)cccc12` [LY294002, reference compound] gave a reduction in sequestration of 50%.

As for `CC(C)NCC(O)c1ccc(O)c(O)c1` (stereo not shown) [isoproterenol, reference compound], at PI3K, the “βARK1 associated PI3K activity in the cytosolic fraction after agonist” value was “little change” and the “βARK1 associated PI3K activity in the membrane fraction after agonist” value is “significant increase”.

Take “phosphatidylinositol 3,4,5-triphosphate [Ptdlns (3,4,5) P3, reference compound]”: in the assay on β2AR complex, the “efficiency of recruitment of adaptin to the receptor” value is listed as “significantly enhanced”.

Values taken from US20060026702A1, “Phosphoinositide 3-kinase mediated inhibition of GPCRs” (DUKE UNIVERSITY, priority 2002, published 2006).
